Type in all cases: biochemical
Assay [1] concerns the target T1, S. pombe Cid1 poly(U) polymerase (Schizosaccharomyces pombe, UniProt O13833).
T1 construct: purchased NEB M0337
T1 sequence (O13833 1-405): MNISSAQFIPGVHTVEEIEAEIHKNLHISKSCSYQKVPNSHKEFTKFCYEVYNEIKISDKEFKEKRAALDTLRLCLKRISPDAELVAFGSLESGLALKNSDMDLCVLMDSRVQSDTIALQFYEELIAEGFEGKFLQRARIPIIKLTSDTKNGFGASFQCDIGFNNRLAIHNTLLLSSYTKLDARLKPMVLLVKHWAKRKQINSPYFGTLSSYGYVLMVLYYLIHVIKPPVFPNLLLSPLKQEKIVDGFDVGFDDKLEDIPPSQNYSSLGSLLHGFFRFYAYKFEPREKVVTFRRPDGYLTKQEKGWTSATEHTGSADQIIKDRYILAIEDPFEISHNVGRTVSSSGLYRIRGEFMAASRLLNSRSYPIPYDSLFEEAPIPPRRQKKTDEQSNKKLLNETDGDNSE
Description: Uncontrolled extension with natural and modified nucleotides by S. pombe Cid1 poly(U) polymerase (gel, RNA kinetic assay). Particulars: for effect of inorganic pyrophosphatase supplementation on RNA synthesis by poly(U) polymerase: 1 mM ribonucleotide, 0.1 units Yeast Inorganic Pyrophosphatase; for incorporation of natural ribonucleotides by poly(U) polymerase: 1.0 mM nucleotide, 5′-Cy5-poly rU-15-mer, 37° C., 30 minutes, gel and RNA kinetic assay.

Assay [2] addresses T2, S. cerevisiae poly(A) polymerase (Saccharomyces cerevisiae, UniProt P29468).
T2 construct: purchased Thermo 74225Z25KU
In words: Modified nucleotide incorporation by S. cerevisiae poly(A) polymerase, denaturing gel electrophoresis. The settings on record: 37° C., 60 minutes; for incorporation by S. cerevisiae poly(A) polymerase: 2.5 mM modified nucleotide, 0.5 mM Mn^2+, 900 units enzyme. How it is done:
FIGS. 4A and 4B. […] All 2′-modified ribonucleotides were at a final concentration of 2.5 mM and incubated at 37° C. for 60 minutes. The control reaction consisted of all reaction components except nucleotide. […] The negative reaction consisted of all reaction components except nucleotide.
The efficiency of S. cerevisiae poly(A) polymerase (Thermo 74225Z25KU) for incorporating of several 2′-modified was evaluated. The modified nucleotides evaluated included the following: 2′-F-rATP (Trilink N-1007), 2′-Azido-rATP (Trilink N-1045), 2′-Amino-rATP (Trilink N-1046), and 2′-O-Methyl rATP (Trilink N-1015). Extension reactions were supplemented with the appropriate buffers, which included 0.5 mM Mn^2+, 200 pmol of the initiator RNA oligonucleotide, 2.5 mM modified nucleotide, and 900 units of enzyme. Reactions were incubated at 37° C. for 60 minutes before being analyzed with denaturing gel electrophoresis. According to the gel (FIG. 4A), under these reactions conditions S. cerevisiae poly(A) polymerase incorporates all 2′-modified nucleotides (2′-Amino-, 2′-O-Methyl-, 2′-F-, and 2′-Azido-rATP). […] Under the same reaction conditions, the reversible terminator nucleoside triphosphate, 2′-O-allyl-rATP, was tested for controlled incorporation by S. cerevisiae poly(A) polymerase.

Assay [3] addresses T3, S. pombe poly(U) polymerase (Schizosaccharomyces pombe, UniProt O13833).
T3 sequence (O13833 1-405): T1 sequence (O13833 1-405)
In words: Controlled (n+1) extension with reversible terminator nucleotides by S. pombe poly(U) polymerase. The settings on record: 37° C.

Assay [4] has as its target T4, N-terminus His^6-tagged S. pombe poly(U) polymerase (Schizosaccharomyces pombe, UniProt O13833).
T4 construct: made in house; host or cells: E. coli (T7 Express)
T4 sequence (O13833 1-405): T1 sequence (O13833 1-405)
Description: Activity of expressed N-terminus His6-tagged S. pombe poly(U) polymerase with 2′-O-allyl-ATP. Particulars: 1 mM nucleotide, approximately 100 pmol of initiator oligonucleotide, 10 μL, 30 seconds at 37° C. As to the method:
FIGS. 13A and 13B. […] The expected molecular weight of the expressed N-terminus His^6-tagged S. pombe poly(U) polymerase is approximately 45 kDa. […] Reactions were supplemented with increasing amounts of initiator oligonucleotide (from 20 pmol to 1000 pmol) to determine the relative conversion rates as a function of initiator oligonucleotide material as performed by concentrated N-terminus His^6-tagged S. pombe poly(U) polymerase. All reaction volumes were 10 μL, the initiator oligonucleotide was a poly-rU-15-mer labeled with a 5′-Cy5 fluorophore. Reactions were incubated at 37° C. for 30 seconds. The control reaction contained all reaction components (initiator oligonucleotide was 20 pmol) with the exception of reversible terminator nucleotide.
The primary sequence for S. pombe poly(U) polymerase (UniProtKB—O13833) was modified by adding the amino acids “[…]” to the N-terminus of the enzyme. These amino acids encode for an N-terminus His^6-tag with the appropriate linkers. Using the protocol outlined in the material and methods section, N-terminus His^6-tagged S. pombe poly(U) polymerase was expressed, purified, and concentrated to a small volume. […] Using the N-terminus His^6-tagged S. pombe poly(U) polymerase, it was determined that approximately 100 pmol of initiator oligonucleotide can be converted to the (+1) product with a conversion rate of >99% (FIG. 13B). […]

For assay [5], the target named is T5, Human polymerase μ R387K (Homo sapiens, UniProt Q9NP87, R387K).
T5 construct: His-tag (pET-28c vector); made in house; host or cells: E. coli (T7 Express)
T5 sequence (Q9NP87 whole entry R387K): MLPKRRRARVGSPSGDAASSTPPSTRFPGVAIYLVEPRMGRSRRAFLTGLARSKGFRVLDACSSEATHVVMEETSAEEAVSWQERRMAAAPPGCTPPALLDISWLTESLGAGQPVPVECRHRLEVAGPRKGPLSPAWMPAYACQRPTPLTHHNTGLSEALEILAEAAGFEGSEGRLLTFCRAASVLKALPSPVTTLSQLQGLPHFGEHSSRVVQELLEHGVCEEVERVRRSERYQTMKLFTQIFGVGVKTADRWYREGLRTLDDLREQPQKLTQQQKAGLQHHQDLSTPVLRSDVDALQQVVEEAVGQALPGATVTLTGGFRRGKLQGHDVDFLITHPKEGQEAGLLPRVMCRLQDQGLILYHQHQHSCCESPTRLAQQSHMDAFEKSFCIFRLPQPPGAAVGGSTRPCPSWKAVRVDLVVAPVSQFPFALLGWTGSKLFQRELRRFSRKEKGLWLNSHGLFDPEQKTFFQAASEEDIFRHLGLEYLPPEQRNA
In words: dATP / rATP incorporation by polymerase μ R387K, denaturing gel electrophoresis. The settings on record: 0.25 mM Mn^2+ and Mg^2+; for incorporation by polymerase μ R387K: poly dT-15-mer initiator. How it is done: FIGS. 3A to 3C. […] Denaturing gel electrophoresis analysis of dATP incorporation (FIG. 3B) and rATP incorporation (FIG. 3C) at nucleotide concentrations of 200-50 μM and 5.0-0.62 mM for dATP and rATP, respectively. These reactions were supplemented with 0.25 mM Mn^2+ and Mg^2+. The control reaction consisted of all reaction components except nucleotide. For all reactions, the initiator oligonucleotide was a HPLC-purified poly dT-15-mer.
Human polymerase μ R387K was expressed and purified as described in the materials and methods. Because it was unknown under which reaction conditions polymerase μ R387K functioned optimally, several reaction parameters were initially evaluated. […] Thus, polymerase p R387K, a confirmed DNA/RNA-directed polymerase, is useful for controlled enzymatic RNA synthesis.

For assay [6], the target named is T3, S. pombe poly(U) polymerase. In words: RNA synthesis by S. pombe poly(U) polymerase with competitive inhibitor (non-hydrolyzable) nucleotide. The settings on record: with UTP, 30 minutes at 37° C.

Bounds are passed on as bounds.

T2 sequence (P29468 whole entry): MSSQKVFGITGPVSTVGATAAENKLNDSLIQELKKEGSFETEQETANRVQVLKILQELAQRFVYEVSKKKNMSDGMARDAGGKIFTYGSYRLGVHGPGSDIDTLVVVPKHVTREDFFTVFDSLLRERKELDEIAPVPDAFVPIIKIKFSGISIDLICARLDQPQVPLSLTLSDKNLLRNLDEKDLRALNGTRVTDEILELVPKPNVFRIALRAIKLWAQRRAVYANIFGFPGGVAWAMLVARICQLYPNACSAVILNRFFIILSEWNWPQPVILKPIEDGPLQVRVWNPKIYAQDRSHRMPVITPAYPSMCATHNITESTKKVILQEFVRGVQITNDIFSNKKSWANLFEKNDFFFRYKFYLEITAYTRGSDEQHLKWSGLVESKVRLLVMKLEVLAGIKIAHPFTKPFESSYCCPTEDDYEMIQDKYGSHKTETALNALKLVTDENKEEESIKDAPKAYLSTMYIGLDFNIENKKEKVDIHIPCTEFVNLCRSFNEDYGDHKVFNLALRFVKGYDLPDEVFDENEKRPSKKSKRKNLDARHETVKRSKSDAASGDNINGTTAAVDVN

Take `O=c1ccn([C@@H]2O[C@H](COP(=O)(O)OP(=O)(O)OP(=O)(O)O)[C@@H](O)[C@H]2O)c(=O)[nH]1` [rUTP]: in assay [1] (30 minutes at 37° C.), the “effect of inorganic pyrophosphatase supplementation on RNA synthesis by poly(U) polymerase” value (shortened to “effect … by poly(U) polymerase”) was “greatest enhancement”.

On to `Nc1ncnc2c1ncn2[C@@H]1O[C@H](COP(=O)(O)OP(=O)(O)OP(=O)(O)O)[C@@H](O)[C@H]1F` [2′-F-rATP, 2′-fluoro-2′-deoxyadenosine-5′-triphosphate], for which the “incorporation by S. cerevisiae poly(A) polymerase” value in assay [2] is given as “incorporates”.

In the case of `Nc1ncnc2c1ncn2[C@@H]1O[C@H](COP(=O)(O)OP(=O)(O)OP(=O)(O)O)[C@@H](O)[C@H]1N` [2′-Amino-rATP, 2′-amino-2′-deoxyadenosine-5′-triphosphate], the “incorporation by S. cerevisiae poly(A) polymerase” value in assay [2] is given as “incorporates”.

Take `CO[C@@H]1[C@H](O)[C@@H](COP(=O)(O)OP(=O)(O)OP(=O)(O)O)O[C@H]1n1cnc2c(N)ncnc21` [2′-O-Methyl rATP, 2′-O-methyladenosine-5′-triphosphate]: the “incorporation by S. cerevisiae poly(A) polymerase” value in assay [2] is “incorporates”.

As for `Nc1nc2c(ncn2[C@@H]2O[C@H](COP(=O)(O)OP(=O)(O)OP(=O)(O)O)[C@@H](O)[C@H]2O)c(=O)[nH]1` [rGTP], the “incorporation of natural ribonucleotides by poly(U) polymerase” value in assay [1] is recorded as “has activity”. Also, the “effect … by poly(U) polymerase” value in assay [1] (30 minutes at 37° C.) is given as “minimally affected”.

As for `C=CCO[C@@H]1[C@H](O)[C@@H](COP(=O)(O)OP(=O)(O)OP(=O)(O)O)O[C@H]1n1cnc2c(N)ncnc21` [2′-O-allyl-ATP], the “incorporation of reversible terminator by poly(U) polymerase” value in assay [3] (1 mM, 30 minutes, initiator extended by one base) was “incorporated only a single”. Also, in assay [3] (optimized conditions, 0.5 minutes), the “conversion rate of initiator (+0) to extension product (+1)” value is reported as more than 99%. Further, the “time required to fully convert the initiator oligonucleotide (+0) to extension product (+1)” value in assay [3] (optimized conditions, poly-rU-15-mer 5′-Cy5) is “less than or equal to 0.5 minutes”. Moreover, the “controlled incorporation by S. cerevisiae poly(A) polymerase” value in assay [2] (nucleoside triphosphate 250 μM to 4000 μM) is “positive (n+1) incorporation”. The “conversion rate to the (+1) product” value in assay [4] is given as more than 99%.

As for `[N-]=[N+]=N[C@@H]1[C@H](O)[C@@H](COP(=O)(O)OP(=O)(O)OP(=O)(O)O)O[C@H]1n1cnc2c(N)ncnc21` [2′-Azido-rATP, 2′-azido-2′-deoxyadenosine-5′-triphosphate], the “incorporation by S. cerevisiae poly(A) polymerase” value in assay [2] is recorded as “incorporates”.

Consider `O=c1[nH]cc([C@@H]2O[C@H](COP(=O)(O)OP(=O)(O)OP(=O)(O)O)[C@@H](O)[C@H]2O)c(=O)[nH]1` [Pseudouridine, pseudouridine-5′-triphosphate], for which the “length of RNA oligonucleotides produced” value in assay [1] (2 mM, 1 mM, or 0.5 mM nucleotide, 0.1 units PPi-ase, 30 minutes at 37° C.) is recorded as 30-45 nt.

As for `Nc1ncnc2c1ncn2[C@@H]1O[C@H](COP(=O)(O)OP(=O)(O)OP(=O)(O)O)[C@@H](O)[C@H]1O` [rATP], in assay [1] (30 minutes at 37° C.), the “effect … by poly(U) polymerase” value is “greatest enhancement”. Also, in assay [5], the “nucleotide concentration needed to produce a response similar to 200 μM of dATP” value came out at 5 mM and the “incorporation by polymerase μ R387K” value was “can incorporate”.

For the molecule `Nc1ncnc2c1ncn2[C@H]1C[C@H](O)[C@@H](COP(=O)(O)OP(=O)(O)OP(=O)(O)O)O1` [dATP], the “incorporation by polymerase μ R387K” value in assay [5] was “can incorporate”.

For the molecule `O=c1ccn([C@@H]2O[C@H](COP(=O)(O)NP(=O)(O)OP(=O)(O)O)[C@@H](O)[C@H]2O)c(=O)[nH]1` [Uridine-5′-[(α,β)-imido]triphosphate], in assay [6], the “concentrations having little effect on controlling the RNA synthesis reaction” value is reported as “below 0.8 mM” and the “effect of higher concentrations of non-hydrolyzable ribonucleotide on rUTP incorporation” value is “significantly limited the total number of hydrolyzable rUTP incorporations”.

`Nc1ccn([C@@H]2O[C@H](COP(=O)(O)OP(=O)(O)OP(=O)(O)O)[C@@H](O)[C@H]2O)c(=O)n1` [rCTP]: the “incorporation of natural ribonucleotides by poly(U) polymerase” value in assay [1] was “has activity”. Further, the “effect … by poly(U) polymerase” value in assay [1] (30 minutes at 37° C.) was “minimally affected”.

The values above are taken from patent publication US20220145295A1, “ENZYMATIC RNA SYNTHESIS” (President and Fellows of Harvard College, priority 2018, published 2022).
